Data: paper PMC5833756, “A novel ruthenium complex with xanthoxylin induces S-phase arrest and causes ERK1/2-mediated apoptosis in HepG2 cells through a p53-independent pathway” (Cell Death & Disease, 2018)
pIC50: −log10 of the molar value. “And” between values parts separate entries of the source, which are not always exact repeats. Equal values may be shown once. Read-outs that look alike come from different tables or passages of the source.

Assays:
[1] = system: HL-60; format: cell-based, human
[2] = system: HepG2 cells; assay: Gene expression analysis by qPCR array (TaqMan Array Human Molecular Mechanisms of Cancer); format: cell-based; parameters: key to RQ CCND3 gene expression / RQ CDC42 gene expression / RQ DVL1 gene expression / RQ FYN gene expression / RQ KRAS gene expression / RQ MAP2K1 gene expression / RQ MAPK1 gene expression / RQ MAPK14 gene expression / RQ NFKB2 gene expression / RQ RAF1 gene expression / RQ RELA gene expression / RQ BCAR1 gene expression: 2^-ΔΔCT relative quantification vs 0.2% DMSO control (calibrator = 1); conditions: HepG2, 12 h; RCX 12 µM, DOX 2 µM
Description: HepG2 cells were plated in bottles for cell culture (7 × 10^4 cells/mL). […] The RNA was evaluated by fluorimetry using QuBit (Life Technologies; Camarillo, CA, USA). RNA reverse transcription was performed using a Superscript VILO™ Kit (Invitrogen Corporation; Waltham, MA, USA). A 96-well plate TaqMan® Array Human Molecular Mechanisms of Cancer (ID 4418806, Applied Biosystems^TM, Foster City, CA, USA) was used for the gene expression study by qPCR. The reactions were conducted in an ABI ViiA7 system (Applied Biosystems^TM; Foster City, CA, USA). The cycle conditions comprised 2 min at 50 °C, 20 s at 95 °C, then 40 cycles of 3 s at 95 °C and 30 s at 60 °C. The relative quantification (RQ) of mRNA expression was calculated by the 2^-ΔΔCT method[40] using Gene Expression Suite™ Software (Applied Biosystems^TM), and the cells treated with the negative control (0.2% DMSO) were used as a calibrator. The reactions were normalized by the geometric mean of the RQ of the reference genes GAPDH, 18S and HPRT1. All experiments were performed in DNase/RNase-free conditions.

[3] = system: calf thymus DNA; assay: DNA intercalation assay (ethidium bromide displacement); format: binding; conditions: 20 μM, cell-free, 15 min
Description: DNA intercalation was assessed by examining the ability of the complex to displace ethidium bromide from ctDNA (Sigma-Aldrich)[36]. […] After a 15 min of incubation at room temperature, fluorescence was measured using the excitation and emission wavelengths of 320 nm and 600 nm, respectively, using the Spectramax Microplate Reader (Molecular Devices).

[4] = system: K-562; format: cell-based, human

COc1cccc2c1C(=O)c1c(O)c3c(c(O)c1C2=O)C[C@@](O)(C(=O)CO)C[C@@H]3O[C@H]1C[C@H](N)[C@H](O)[C@H](C)O1 [DOX, doxorubicin]
pIC50 ([1]; HL-60 (human promyelocytic leukemia), 72 h): 6.70 | selectivity index (SI) ([1]; IC50 HaCAT / IC50 HL-60): 0.5 | selectivity index (SI) ([1]; IC50 MRC5 / IC50 HL-60): 6.5 | selectivity index (SI) ([1]; IC50 PBMC / IC50 HL-60): 26 | RQ ABL1 gene expression [2]: 2.628 | RQ AKT1 gene expression [2]: 1.813 | RQ AKT2 gene expression [2]: 3.3 and 3.275 | RQ APC gene expression [2]: 1.780 | RQ BAX gene expression [2]: 0.964 | RQ BCAR1 gene expression [2]: 2.2 and 2.176 | RQ BCL2L1 gene expression [2]: 0.663 | RQ BCL2L11 gene expression [2]: 14.0 and 13.988 | RQ BCL2 gene expression [2]: 1.1 and 1.140 | RQ BID gene expression [2]: 1.433 | RQ BRAF gene expression [2]: 1.0 and 1.012 | RQ CASP8 gene expression [2]: 1.414 | RQ CASP9 gene expression [2]: 0.957 | RQ CCND1 gene expression [2]: 0.8 and 0.820 | RQ CCND3 gene expression [2]: 1.2 and 1.151 | RQ CCNE1 gene expression [2]: 1.535 | RQ CDC42 gene expression [2]: 1.1 and 1.077 | RQ CDK2 gene expression [2]: 4.331 | RQ CDK4 gene expression [2]: 1.4 and 1.427 | RQ CDKN1A gene expression [2]: 2.849 | RQ CDKN1B gene expression [2]: 1.0 and 1.029 | RQ CDKN2A gene expression [2]: 2.0 and 2.027 | RQ CRK gene expression [2]: 2.5 and 2.519 | RQ CTNNB1 gene expression [2]: 2.392 | RQ CYCS gene expression [2]: 0.582 | RQ DVL1 gene expression [2]: 0.5 and 0.539 | RQ E2F1 gene expression [2]: 4.8 and 4.768 | RQ EGFR gene expression [2]: 0.5 and 0.502 | RQ ELK1 gene expression [2]: 2.1 and 2.142 | RQ ERBB2 gene expression [2]: 1.8 and 1.746 | RQ FADD gene expression [2]: 3.100 | RQ FAS gene expression [2]: 2.5 and 2.459 | RQ FGF2 gene expression [2]: 1.9 and 1.914 | RQ FOS gene expression [2]: 1.514 | RQ FYN gene expression [2]: 1.0 and 1.034 | RQ FZD1 gene expression [2]: 5.8 and 5.811 | RQ GRB2 gene expression [2]: 1.030 | RQ GSK3B gene expression [2]: 0.590 | RQ HRAS gene expression [2]: 1.4 and 1.370 | RQ IGF1R gene expression [2]: 1.160 | RQ ITGA2B gene expression [2]: 2.4 and 2.384 | RQ ITGAV gene expression [2]: 2.101 | RQ ITGB1 gene expression [2]: 1.941 | RQ ITGB3 gene expression [2]: 1.707 | RQ JUN gene expression [2]: 7.3 and 7.340 | RQ KRAS gene expression [2]: 2.6 and 2.552 | RQ MAP2K1 gene expression [2]: 2.4 and 2.441 | RQ MAP3K5 gene expression [2]: 1.887 | RQ MAPK1 gene expression [2]: 0.9 and 0.857 | RQ MAPK3 gene expression [2]: 1.561 | RQ MAPK8 gene expression [2]: 1.273 | RQ MAPK14 gene expression [2]: 2.2 and 2.163 | RQ MDM2 gene expression [2]: 0.9 and 0.928 | RQ MYC gene expression [2]: 0.4 and 0.392 | RQ NFKB1 gene expression [2]: 2.0 and 2.017 | RQ NFKB2 gene expression [2]: 3.6 and 3.594 | RQ NFKBIA gene expression [2]: 1.224 | RQ NRAS gene expression [2]: 1.874 | RQ PIK3CA gene expression [2]: 2.854 | RQ PIK3R1 gene expression [2]: 6.207 | RQ PTEN gene expression [2]: 0.476 | RQ PTK2B gene expression [2]: 0.530 | RQ PTK2 gene expression [2]: 1.0 and 0.948 | RQ RAC1 gene expression [2]: 2.048 | RQ RAF1 gene expression [2]: 3.5 and 3.447 | RQ RB1 gene expression [2]: 1.230 | RQ RELA gene expression [2]: 1.1 and 1.074 | RQ RHOA gene expression [2]: 1.270 | RQ SHC1 gene expression [2]: 1.9 and 1.865 | RQ SMAD4 gene expression [2]: 2.6 and 2.601 | RQ SOS1 gene expression [2]: 2.2 and 2.199 | RQ SRC gene expression [2]: 1.036 | RQ TCF3 gene expression [2]: 1.9 and 1.915 | RQ TGFB1 gene expression [2]: 1.413 | RQ TGFBR1 gene expression [2]: 1.403 | RQ TGFBR2 gene expression [2]: 1.094 | RQ TP53 gene expression [2]: 1.0 and 0.945 | RQ VEGFA gene expression [2]: 1.8 and 1.772 | displacement of ethidium bromide from ctDNA (fluorescence) [3]: significantly reduced the fluorescence intensity | selectivity index (SI) ([4]; IC50 HaCAT / IC50 K-562): 0.1 | selectivity index (SI) ([4]; IC50 MRC5 / IC50 K-562): 1.3 | selectivity index (SI) ([4]; IC50 PBMC / IC50 K-562): 5.2 | pIC50 ([4]; K562, K-562 (human chronic myelogenous leukemia), 72 h): 6.00
